Source: patent US8501446B2 (Vertex Pharmaceuticals Incorporated, priority 2004, dated 2013)

Experiments:
ROCK I (AA 6-553) = target: T1, ROCK I (AA 6-553) (Homo sapiens, UniProt Q13464); experiment: ROCK inhibition assay, standard coupled enzyme system ("Enzyme"); assay type: biochemical; conditions: enzyme-linked assay
T1 construct: ROCK I (AA 6-553)
Description: Compounds were screened for their ability to inhibit ROCK I (AA 6-553) activity using a standard coupled enzyme system (Fox et al. (1998) Protein Sci. 7, 2249). Reactions were carried out in a solution containing 100 mM HEPES (pH 7.5), 10 mM MgCl2, 25 mM NaCl, 2 mM DTT and 1.5% DMSO. Final substrate concentrations in the assay were 45 μM ATP (Sigma Chemicals, St Louis, Mo.) and 200 μM peptide (American Peptide, Sunnyvale, Calif.). Reactions were carried out at 30° C. and 45 nM ROCK L. Final concentrations of the components of the coupled enzyme system were 2.5 mM phosphoenolpyruvate, 350 μM NADH, 30 μg/ml pyruvate kinase and 10 μg/ml lactate dehydrogenase.

[1] = target: T2, full length Aurora-A (AA 1-403) (Homo sapiens, UniProt O14965); experiment: Aurora-A inhibition assay, standard coupled enzyme system; assay type: biochemical; conditions: average Ki if more than one value determined
T2 construct: full length Aurora-A (AA 1-403)
T2 sequence (O14965 1-403): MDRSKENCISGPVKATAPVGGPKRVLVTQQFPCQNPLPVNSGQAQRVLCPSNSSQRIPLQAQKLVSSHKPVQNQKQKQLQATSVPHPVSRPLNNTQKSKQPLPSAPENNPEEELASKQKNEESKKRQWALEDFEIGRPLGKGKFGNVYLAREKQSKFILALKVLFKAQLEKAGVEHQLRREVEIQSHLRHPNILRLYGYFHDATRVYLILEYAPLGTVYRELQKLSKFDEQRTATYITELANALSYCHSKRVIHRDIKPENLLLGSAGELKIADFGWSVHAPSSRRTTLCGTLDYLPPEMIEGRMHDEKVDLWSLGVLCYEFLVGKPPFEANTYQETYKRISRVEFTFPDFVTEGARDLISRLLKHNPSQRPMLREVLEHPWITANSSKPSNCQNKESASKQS
Description: Compounds were screened for their ability to inhibit full length Aurora-A (AA 1-403) activity using a standard coupled enzyme system (Fox et al., Protein Sci. 7, pp. 2249 (1998)). Reactions were carried out in a solution containing 100 mM HEPES (pH 7.5), 10 mM MgCl2, 25 mM NaCl, 300 μM NADH, 1 mM DTT and 3% DMSO. Final substrate concentrations in the assay were 200 μM ATP (Sigma Chemicals, St Louis, Mo.) and 800 μM peptide (LRRASLG, American Peptide, Sunnyvale, Calif.). Reactions were carried out at 30° C. and 35 nM Aurora-A. Final concentrations of the components of the coupled enzyme system were 2.5 mM phosphoenolpyruvate, 200 μM NADH, 60 μg/ml pyruvate kinase and 20 μg/ml lactate dehydrogenase.
An assay stock buffer solution was prepared containing all of the reagents listed above with the exception of ATP and the test compound of interest. The assay stock buffer solution (60 μl) was incubated in a 96 well plate with 2 μl of the test compound of interest at final concentrations spanning 0.002 μM to 30 μM at 30° C. for 10 min. Typically, a 12 point titration was conducted by preparing serial dilutions (from 1 mM compound stocks) with DMSO of the test compounds in daughter plates. The reaction was initiated by the addition of 5 μl of ATP (final concentration 200 μM). Rates of reaction were obtained using a Molecular Devices Spectramax plate reader (Sunnyvale, Calif.) over 10 min at 30° C. The Ki values were determined from the rate data as a function of inhibitor concentration using computerized nonlinear regression (Prism 3.0, Graphpad Software, San Diego, Calif.). Aurora-C activity was screened in a similar manner using Aurora-C protein. Aurora-B activity was screened using a radioactive assay, such as described in Examples 1 and 2, but using Aurora-B protein.

T1 sequence (Q13464 6-553, species assumed): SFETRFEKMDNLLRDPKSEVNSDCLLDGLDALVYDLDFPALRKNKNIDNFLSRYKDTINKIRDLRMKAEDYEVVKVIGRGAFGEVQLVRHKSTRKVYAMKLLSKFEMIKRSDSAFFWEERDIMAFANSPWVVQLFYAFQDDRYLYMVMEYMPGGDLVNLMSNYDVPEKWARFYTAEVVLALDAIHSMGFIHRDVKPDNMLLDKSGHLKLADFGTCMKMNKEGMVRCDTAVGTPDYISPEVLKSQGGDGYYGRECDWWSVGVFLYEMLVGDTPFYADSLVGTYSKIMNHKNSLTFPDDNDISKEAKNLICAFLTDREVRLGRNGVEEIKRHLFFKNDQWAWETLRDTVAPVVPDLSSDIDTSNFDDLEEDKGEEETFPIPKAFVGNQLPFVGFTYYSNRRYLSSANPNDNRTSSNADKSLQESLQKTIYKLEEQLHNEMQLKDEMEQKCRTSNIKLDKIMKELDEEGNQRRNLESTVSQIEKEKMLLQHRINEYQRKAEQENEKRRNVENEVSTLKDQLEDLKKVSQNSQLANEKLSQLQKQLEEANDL

SMILES | Ki (ROCK I (AA 6-553)) [nM] | Ki [1] [nM]
Fc1cnc(-c2c[nH]c3ncc(Cl)cc23)nc1NCC1CCOC1 (stereo not shown) [Compound 373] | 500 to 5000 | < 500
CNC(=O)COc1cccc([C@H](C)Nc2nc(-c3c[nH]c4ncc(Cl)cc34)ncc2F)c1 [Compound 376] | 500 to 5000 | < 500
COCC#Cc1cnc2[nH]cc(-c3ncc(F)c(N[C@@H](C)c4ccc(F)cc4)n3)c2c1 [Compound 384] | 500 to 5000 | < 500
C[C@H](Nc1nc(-c2c[nH]c3ncc(Cl)cc23)ncc1F)C(=O)NCCS(C)(=O)=O [Compound 389] | 500 to 5000 | < 500
C[C@H](Nc1nc(-c2c[nH]c3ncc(Cl)cc23)ncc1F)C(=O)NC1CCS(=O)(=O)C1 (stereo partly shown) [Compound 390] | 500 to 5000 | 500 to 5000
CNC(=O)[C@H](CC(C)C)Nc1nc(-c2c[nH]c3ncc(Cl)cc23)ncc1F [Compound 393] | 500 to 5000 | < 500
COC(=O)c1cc(F)c(-c2c[nH]c3ncc(Cl)cc23)nc1N[C@@H](C)c1ccc(F)cc1 [Compound 398] | 500 to 5000 | < 500
N#Cc1cc(-c2c[nH]c3ncc(Cl)cc23)nc(N2CCNCC2)c1 [Compound 399] | < 500 | < 500
C[C@@H](CC(=O)O)Nc1nc(-c2c[nH]c3ncc(Cl)cc23)ncc1F [Compound 401] | 500 to 5000 | < 500
CC(C)Oc1cnc(-c2c[nH]c3ncc(Cl)cc23)nc1N[C@@H](C)C(=O)NCC(F)(F)F [Compound 410] | 500 to 5000 | < 500

Second part, the compound after the results:

Ki (ROCK I (AA 6-553)) [nM] | Ki [1] [nM] | SMILES
500 to 5000 | < 500 | CCNC(=O)[C@H](C)Nc1nc(-c2c[nH]c3ncc(Cl)cc23)ncc1F [Compound 367]
500 to 5000 | < 500 | CN1CCC(CNc2nc(-c3c[nH]c4ncc(Cl)cc34)ncc2F)CC1 [Compound 372]
500 to 5000 | < 500 | C[C@H](Nc1nc(-c2c[nH]c3ncc(Cl)cc23)ncc1F)c1cccc(OCCCN(C)C)c1 [Compound 377]
500 to 5000 | < 500 | C[C@H](Nc1nc(-c2c[nH]c3ncc(C#CCO)cc23)ncc1F)c1ccc(F)cc1 [Compound 378]
< 500 | < 500 | Fc1cnc(-c2c[nH]c3ncc(Cl)cc23)nc1NC[C@H]1CCNC1 [Compound 379]
< 500 | < 500 | Fc1cnc(-c2c[nH]c3ncc(Cl)cc23)nc1N[C@@H]1CCNC1 [Compound 381]
500 to 5000 | < 500 | CC(=O)N1CCC(CNc2nc(-c3c[nH]c4ncc(Cl)cc34)ncc2F)CC1 [Compound 383]
500 to 5000 | < 500 | COCCNC(=O)[C@H](C)Nc1nc(-c2c[nH]c3ncc(Cl)cc23)ncc1F [Compound 392]
500 to 5000 | < 500 | C[C@H](Nc1nc(-c2c[nH]c3ncc(C#N)cc23)ncc1F)c1ccc(F)cc1 [Compound 394]
500 to 5000 | < 500 | COC(=O)c1cc(F)c(N[C@@H](C)c2ccc(F)cc2)nc1-c1c[nH]c2ncc(Cl)cc12 [Compound 396]
500 to 5000 | 500 to 5000 | CNC(=O)C[C@H](C)Nc1nc(-c2c[nH]c3ncc(Cl)cc23)ncc1F [Compound 402]
500 to 5000 | < 500 | CCOc1cnc(-c2c[nH]c3ncc(Cl)cc23)nc1N[C@@H](C)C(=O)NCC(F)(F)F [Compound 408]
< 500 | < 500 | O=Cc1cc(-c2c[nH]c3ncc(Cl)cc23)nc(N2CCNCC2)c1 [Compound 409]
